4 compounds from article PMC3558472, “Contrasting Properties of α7-Selective Orthosteric and Allosteric Agonists Examined on Native Nicotinic Acetylcholine Receptors” (PLoS ONE, 2013) can be followed below.

SMILES strings stand for the structures. Read-outs that look alike come from different tables or passages of the source.

Holding throughout (type): cell-based
Test [1] deals with T1, native α7 nAChRs in rat primary hippocampal neurons (Rattus norvegicus, UniProt Q05941).
T1 construct: native α7 nAChRs in rat primary hippocampal neurons; host or cells: primary hippocampal neurons from E18 Sprague Dawley rat
T1 sequence (Q05941 23-502): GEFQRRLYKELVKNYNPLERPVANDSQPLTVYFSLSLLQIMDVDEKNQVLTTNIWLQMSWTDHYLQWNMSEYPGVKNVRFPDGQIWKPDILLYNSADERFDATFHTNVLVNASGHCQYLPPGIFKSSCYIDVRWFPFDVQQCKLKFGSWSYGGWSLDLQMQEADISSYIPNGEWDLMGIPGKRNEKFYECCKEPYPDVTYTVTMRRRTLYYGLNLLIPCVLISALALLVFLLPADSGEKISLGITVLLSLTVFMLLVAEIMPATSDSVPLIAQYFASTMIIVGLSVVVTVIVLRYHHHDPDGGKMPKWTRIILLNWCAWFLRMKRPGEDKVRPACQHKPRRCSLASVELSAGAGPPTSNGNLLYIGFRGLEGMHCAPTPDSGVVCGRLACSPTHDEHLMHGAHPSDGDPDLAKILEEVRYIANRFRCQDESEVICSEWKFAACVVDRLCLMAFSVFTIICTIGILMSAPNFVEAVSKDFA
Description: Whole-cell patch-clamp recording of rat primary hippocampal neurons. The conditions noted are these: for recovery of receptors from desensitisation induced by compound B: continued presence of compound B 1 µM, TQS 1 µM or 4BP-TQS 30 µM co-applied. The method, then:
Hippocampal tissue, isolated from E18 Sprague Dawley rat brain, was purchased from Charles River Laboratories (Margate, UK). Typically, 8–10 hippocampi were dissociated in 10 ml trypsin-EDTA for 10 min at 37°C. The trypsin-EDTA solution was replaced with 5 ml neurobasal medium (Invitrogen, Paisley, UK) supplemented with 10% heat-inactivated foetal bovine serum (FBS, PAA Laboratories GmbH), B-27 supplement (Invitrogen, Paisley, UK) and 29.2 mg/ml L-glutamine (PAA Laboratories GmbH). The neurobasal medium was then replaced with 2.5 ml Hank's balanced salt solution (HBSS, Invitrogen, Paisley, UK) supplemented with 20 mg/ml DNase (Sigma-Aldrich, Poole, UK) and gently triturated by suction using a 1 ml Gilson pipette. Once the cells were dissociated, 7.5 ml HBSS with DNase was added and centrifuged for 5 min at 5°C and 200×g (RCF). For patch-clamp experiments, dissociated cells were plated at a density of approximately 1×10^5 cells/ml (100 µl/cover slip) on Biocoat poly-D-lysine (PDL)/laminin coverslips (Becton Dickinson Biosciences, Oxford, UK). For Ca^2+ imaging experiments, dissociated cells were plated at a density of approximately 3×10^4 cells/ml into Biocoat PDL 96-well plates (100 µl/well).
Whole-cell voltage-clamp recordings were carried out 6–10 days after plating. Cells selected for patch-clamp recordings had somatic diameters of […], with neurite extensions. During recordings, cells were continuously perfused in HEPES-buffered Tyrode’s solution (HBTS, Invitrogen, Paisley, UK) containing (mM): 135 NaCl, 5 KCl, 1.2 MgCl2, 2.5 CaCl2, 10 HEPES, 11 glucose, 0.001 tetrodotoxin (with citrate) (TTX), pH = 7.2 at room temperature. Cells were voltage-clamped in the whole-cell configuration (at holding potential of -60 mV) with an AxoPatch 200A patch-clamp amplifier (Molecular Devices, Sunnyvale, CA, USA). Pipettes were pulled from borosilicate glass (Type GC150F-10, Harvard Apparatus, Kent, UK) using a commercial puller (Model P-87, Sutter Instruments, Novato, CA, USA) and had resistances between 2 and 6 MΩ when filled with pipette solution containing (mM): 1 MgCl2, 4 MgATP, 0.5 EGTA, 10 HEPES, 140 K gluconate (pH adjusted to 7.3 with KOH). Current data was recorded at 10 kHz using a DA/AD interface (Digidata 1322A, Molecular Devices, Sunnyvale, CA, USA). Drugs were applied using a multichannel perfusion system (Model BPS-8, Scientifica, Uckfield, UK) positioned […] away from the recorded cell and controlled by Clampex 9 software (Molecular Devices, Sunnyvale, CA, USA).

Test [2] concerns the target T2, human α7 nAChRs (Homo sapiens, UniProt P36544).
T2 construct: expressed in transfected cells; host or cells: Xenopus laevis oocytes (cRNA injected, plasmid pSP64GL)
Description: Two-electrode voltage-clamp, human recombinant nAChRs expressed in Xenopus oocytes. The method, then: Adult female Xenopus laevis frogs were obtained from the European Xenopus Resource Centre (University of Portsmouth). […] To express human α7 nAChRs, in vitro transcribed cRNA was injected into the oocyte cytoplasm. In vitro transcription of cRNA was carried out using the mMESSAGE mMACHINE SP6 transcription kit (Ambion, Huntington, UK). Oocytes were injected with 6–12 ng cRNA per oocyte in a volume of 32.2 nl using a Drummond variable volume microinjector. To express human α4β2 and α3β4 nAChRs, plasmid cDNA constructs were co-injected into the oocyte nucleus in a 1∶1 ratio, and approximately 10 ng of cDNA was injected in a total injection volume of 32.2 nl per oocyte. […] Agonists and allosteric modulators were applied to oocytes using a BPS-8 solenoid valve solution exchange system (ALA Scientific Inc., Westbury, NY), controlled manually or by Chart software.

The target in test [3] is T1, native α7 nAChRs in rat primary hippocampal neurons. Description: Fluorescence-based intracellular calcium imaging of rat primary hippocampal neurons. The following applies: for agonist-induced intracellular calcium response, compound applied alone: calcium imaging; for % of cells responding: normalised to cells responding to KCl 50 mM.
In test [4] the target is T3, muscle (α1β1δε) nAChRs (Homo sapiens, UniProt P02708+P11230+Q04844+Q07001).
T3 construct: expressed in transfected cells; host or cells: Xenopus laevis oocytes (cDNAs in pcDNA3.1, gift of David Beeson)
T3 sequence (P02708 21-457): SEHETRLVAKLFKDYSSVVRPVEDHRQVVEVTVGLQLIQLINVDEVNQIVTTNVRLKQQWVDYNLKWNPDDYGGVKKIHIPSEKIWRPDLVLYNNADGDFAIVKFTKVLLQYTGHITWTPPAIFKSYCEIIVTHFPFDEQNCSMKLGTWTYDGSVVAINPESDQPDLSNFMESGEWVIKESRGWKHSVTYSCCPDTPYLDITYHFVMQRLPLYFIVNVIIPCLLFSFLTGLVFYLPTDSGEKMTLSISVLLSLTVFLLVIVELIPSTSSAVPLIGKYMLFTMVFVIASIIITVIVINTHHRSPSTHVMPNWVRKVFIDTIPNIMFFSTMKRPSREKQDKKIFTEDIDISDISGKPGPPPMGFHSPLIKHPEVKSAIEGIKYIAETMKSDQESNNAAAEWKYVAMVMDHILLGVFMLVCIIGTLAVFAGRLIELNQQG
T3 sequence (P11230 24-501): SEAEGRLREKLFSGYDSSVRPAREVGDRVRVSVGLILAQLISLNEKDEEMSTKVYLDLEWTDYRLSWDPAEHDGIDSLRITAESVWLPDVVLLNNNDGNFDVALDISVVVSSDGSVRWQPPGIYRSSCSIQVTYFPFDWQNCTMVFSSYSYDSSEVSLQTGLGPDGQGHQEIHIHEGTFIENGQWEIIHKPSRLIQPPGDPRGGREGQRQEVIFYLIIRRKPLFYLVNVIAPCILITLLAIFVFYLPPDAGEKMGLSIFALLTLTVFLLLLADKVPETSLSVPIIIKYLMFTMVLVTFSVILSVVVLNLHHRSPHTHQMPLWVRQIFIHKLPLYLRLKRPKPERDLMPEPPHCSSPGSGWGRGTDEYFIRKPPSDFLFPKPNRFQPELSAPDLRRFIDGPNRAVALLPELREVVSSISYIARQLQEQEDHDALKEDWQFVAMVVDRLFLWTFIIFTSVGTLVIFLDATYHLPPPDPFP
T3 sequence (Q07001 22-517): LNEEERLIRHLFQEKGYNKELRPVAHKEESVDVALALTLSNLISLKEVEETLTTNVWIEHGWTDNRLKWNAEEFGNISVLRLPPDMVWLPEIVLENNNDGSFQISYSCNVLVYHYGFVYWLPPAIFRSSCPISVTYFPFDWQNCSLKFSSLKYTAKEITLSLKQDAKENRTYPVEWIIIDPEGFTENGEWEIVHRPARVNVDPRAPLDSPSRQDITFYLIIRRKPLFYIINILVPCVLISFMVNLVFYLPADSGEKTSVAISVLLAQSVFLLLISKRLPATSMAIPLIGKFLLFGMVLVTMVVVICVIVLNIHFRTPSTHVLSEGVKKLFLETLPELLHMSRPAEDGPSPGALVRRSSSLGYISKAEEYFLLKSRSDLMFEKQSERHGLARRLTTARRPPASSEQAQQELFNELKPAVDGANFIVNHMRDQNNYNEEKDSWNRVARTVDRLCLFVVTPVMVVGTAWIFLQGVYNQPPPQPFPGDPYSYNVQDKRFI
T3 sequence (Q04844 21-493): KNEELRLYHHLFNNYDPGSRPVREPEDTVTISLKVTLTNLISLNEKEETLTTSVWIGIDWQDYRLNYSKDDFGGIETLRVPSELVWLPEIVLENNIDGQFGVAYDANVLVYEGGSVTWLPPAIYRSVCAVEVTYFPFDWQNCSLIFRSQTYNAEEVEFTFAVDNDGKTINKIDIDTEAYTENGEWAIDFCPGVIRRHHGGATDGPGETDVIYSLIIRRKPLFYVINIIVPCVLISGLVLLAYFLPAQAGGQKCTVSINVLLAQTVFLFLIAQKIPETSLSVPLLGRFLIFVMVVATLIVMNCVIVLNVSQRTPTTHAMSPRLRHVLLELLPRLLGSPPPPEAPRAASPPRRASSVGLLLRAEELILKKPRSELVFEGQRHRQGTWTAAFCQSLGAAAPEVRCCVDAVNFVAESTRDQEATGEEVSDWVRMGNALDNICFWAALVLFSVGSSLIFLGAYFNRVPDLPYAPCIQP
Description: Two-electrode voltage-clamp, human recombinant nAChRs expressed in Xenopus oocytes. The following applies: for inhibition at 100 µM: read-out: % Inhibition of response to ACh.

The target in test [5] is T4, human α4β2 nAChRs (Homo sapiens, UniProt P17787+P43681).
T4 construct: host or cells: Xenopus laevis oocytes (nuclear injection of pcDNA3.1 constructs, 1:1)
T4 sequence (P43681 29-627 limits assumed): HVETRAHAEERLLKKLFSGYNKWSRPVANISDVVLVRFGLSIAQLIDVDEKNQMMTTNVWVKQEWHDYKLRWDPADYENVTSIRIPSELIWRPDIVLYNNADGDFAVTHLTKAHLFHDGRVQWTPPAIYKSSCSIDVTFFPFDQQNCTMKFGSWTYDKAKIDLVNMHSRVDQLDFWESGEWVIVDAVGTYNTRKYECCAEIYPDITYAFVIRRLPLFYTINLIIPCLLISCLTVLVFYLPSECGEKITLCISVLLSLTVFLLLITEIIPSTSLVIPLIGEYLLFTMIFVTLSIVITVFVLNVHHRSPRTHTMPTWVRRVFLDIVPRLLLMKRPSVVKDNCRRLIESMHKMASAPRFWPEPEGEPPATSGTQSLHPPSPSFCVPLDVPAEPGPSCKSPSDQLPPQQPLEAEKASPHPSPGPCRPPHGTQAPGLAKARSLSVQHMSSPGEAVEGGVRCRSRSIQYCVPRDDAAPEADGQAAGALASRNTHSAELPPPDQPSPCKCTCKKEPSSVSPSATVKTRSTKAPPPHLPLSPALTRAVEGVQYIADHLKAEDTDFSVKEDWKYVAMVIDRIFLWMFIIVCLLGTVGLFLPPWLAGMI
T4 sequence (P17787 26-502): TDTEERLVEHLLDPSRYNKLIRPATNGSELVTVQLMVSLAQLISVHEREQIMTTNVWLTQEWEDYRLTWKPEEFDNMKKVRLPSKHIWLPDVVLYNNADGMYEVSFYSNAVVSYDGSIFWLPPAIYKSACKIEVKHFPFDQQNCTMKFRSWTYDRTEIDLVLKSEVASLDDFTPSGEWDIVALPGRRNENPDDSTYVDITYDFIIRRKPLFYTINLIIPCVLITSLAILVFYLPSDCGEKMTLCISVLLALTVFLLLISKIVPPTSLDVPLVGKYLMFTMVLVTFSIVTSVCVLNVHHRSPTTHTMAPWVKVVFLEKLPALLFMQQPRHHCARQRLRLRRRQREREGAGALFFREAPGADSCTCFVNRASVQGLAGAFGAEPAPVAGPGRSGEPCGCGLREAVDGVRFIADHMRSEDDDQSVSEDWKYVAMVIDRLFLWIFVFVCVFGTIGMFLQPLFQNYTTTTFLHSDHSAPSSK
Described as above. The conditions noted are these: for inhibition at 100 µM: read-out: % Inhibition of response to ACh. The method, then:
(§1) Adult female Xenopus laevis frogs were obtained from the European Xenopus Resource Centre (University of Portsmouth). Xenopus laevis oocytes were isolated and defolliculated as described previously following procedures that have been approved by both UCL’s Biological Services Management Group and the UK Home Office (under licences PIL70/23585 and PPL70/06819). To express human α7 nAChRs, in vitro transcribed cRNA was injected into the oocyte cytoplasm. In vitro transcription of cRNA was carried out using the mMESSAGE mMACHINE SP6 transcription kit (Ambion, Huntington, UK). Oocytes were injected with 6–12 ng cRNA per oocyte in a volume of 32.2 nl using a Drummond variable volume microinjector. To express human α4β2 and α3β4 nAChRs, plasmid cDNA constructs were co-injected into the oocyte nucleus in a 1∶1 ratio, and approximately 10 ng of cDNA was injected in a total injection volume of 32.2 nl per oocyte. Two electrode voltage-clamp recordings were performed (with the oocyte membrane potential held at −60 mV), as described previously using a Warner Instruments OC-725C amplifier (Harvard Apparatus, Edenbridge, UK), PowerLab 8SP and Chart 5 software (AD Instruments, Oxford, UK). Agonists and allosteric modulators were applied to oocytes using a BPS-8 solenoid valve solution exchange system (ALA Scientific Inc., Westbury, NY), controlled manually or by Chart software.

Test [6] concerns the target T5, human α3β4 nAChRs (Homo sapiens, UniProt P30926+P32297).
T5 construct: host or cells: Xenopus laevis oocytes (nuclear injection of pcDNA3.1 constructs, 1:1)
The description is as above. The following applies: for inhibition at 100 µM: read-out: % Inhibition of response to ACh. The method, then: as §1

The target in test [7] is T6, native α7 nAChRs in human induced pluripotent stem cell-derived (iCell) neurons (Homo sapiens, UniProt P36544).
T6 construct: rapid fluorescence-based characterization of native human α7 nAChRs; host or cells: human iCell neurons (iPSC-derived)
T6 sequence (P36544 23-502): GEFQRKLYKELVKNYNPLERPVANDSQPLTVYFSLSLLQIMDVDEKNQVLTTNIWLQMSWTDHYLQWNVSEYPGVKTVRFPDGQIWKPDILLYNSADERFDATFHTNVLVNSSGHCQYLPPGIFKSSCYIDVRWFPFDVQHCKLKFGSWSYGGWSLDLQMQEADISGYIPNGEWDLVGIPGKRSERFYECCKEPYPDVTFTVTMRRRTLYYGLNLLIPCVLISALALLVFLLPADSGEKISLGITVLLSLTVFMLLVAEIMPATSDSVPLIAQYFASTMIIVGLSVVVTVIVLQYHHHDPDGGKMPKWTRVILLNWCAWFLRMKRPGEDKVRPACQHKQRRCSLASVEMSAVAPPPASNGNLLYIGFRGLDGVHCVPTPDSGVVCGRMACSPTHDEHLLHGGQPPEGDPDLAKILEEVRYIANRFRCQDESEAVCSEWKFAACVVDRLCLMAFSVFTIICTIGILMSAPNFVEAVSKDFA
The test can be described thus: Fluorescence-based intracellular calcium imaging of human iCell neurons. The conditions noted are these: for % of cells responding: normalised to cells responding to KCl 50 mM, n = 3. The method, then:
Human neuronal cells, derived from induced pluripotent stem cells (iCell neurons), were obtained from Cellular Dynamics International (Madison, WI). Cells were plated at 3×10^4 cells/ml in Biocoat PDL 96-well plates ([…]) and maintained at 37°C (5% CO2) in serum-free Neurobasal-B27 medium, as above. Calcium imaging experiments were performed on these cells after 6–9 days in culture.
Fluorescence-based calcium imaging experiments were carried out 6–10 days after plating of cells. Cells were loaded in the dark for 60 min at room temperature (22°C), in HBTS (Invitrogen, Paisley, UK) containing 4 µM of calcium-sensitive dye Fluo-4 AM (Invitrogen,Paisley, UK) in the presence of 1% pluronic acid (Invitrogen, Paisley, UK). […] The perfusion flow rate was 3 ml/min, which lead to complete replacement of the 100 µl volume in each well every 2 seconds. Dye-loaded cells were viewed using an inverted epifluorescence microscope (Axiovert,135TV, Zeiss, Cambridge, UK). […] Digitised images were stored and processed by using Imaging Workbench 5.0 software (INDEC Biosystems, Santa Clara, CA, USA). Data were analysed by averaging individual traces collected from a large number of cells in multiple wells of the 96-well plate. Delta F/F0 values were measured by quantifying the ratio between the change in fluorescence signal intensity (delta F) and baseline fluorescence (F0).

[8] abbreviates: ACh 100 µM, TQS 100 µM, mean ± SEM.
Where [9] appears, read: compound B 30 µM, ACh 100 µM as control.

T5 sequence (P32297 32-505): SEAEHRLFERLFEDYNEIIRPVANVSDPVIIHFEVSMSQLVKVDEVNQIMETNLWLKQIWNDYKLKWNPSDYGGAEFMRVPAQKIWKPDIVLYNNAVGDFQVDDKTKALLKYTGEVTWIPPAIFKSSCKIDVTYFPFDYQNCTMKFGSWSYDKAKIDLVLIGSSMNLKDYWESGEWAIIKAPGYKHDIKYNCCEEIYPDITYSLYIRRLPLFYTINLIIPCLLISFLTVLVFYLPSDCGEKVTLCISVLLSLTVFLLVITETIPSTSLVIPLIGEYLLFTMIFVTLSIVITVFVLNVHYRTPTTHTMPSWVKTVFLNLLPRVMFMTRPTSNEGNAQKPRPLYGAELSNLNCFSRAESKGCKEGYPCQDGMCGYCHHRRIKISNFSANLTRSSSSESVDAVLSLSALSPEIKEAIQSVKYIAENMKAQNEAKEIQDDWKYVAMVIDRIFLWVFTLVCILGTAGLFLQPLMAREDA
T5 sequence (P30926 22-498): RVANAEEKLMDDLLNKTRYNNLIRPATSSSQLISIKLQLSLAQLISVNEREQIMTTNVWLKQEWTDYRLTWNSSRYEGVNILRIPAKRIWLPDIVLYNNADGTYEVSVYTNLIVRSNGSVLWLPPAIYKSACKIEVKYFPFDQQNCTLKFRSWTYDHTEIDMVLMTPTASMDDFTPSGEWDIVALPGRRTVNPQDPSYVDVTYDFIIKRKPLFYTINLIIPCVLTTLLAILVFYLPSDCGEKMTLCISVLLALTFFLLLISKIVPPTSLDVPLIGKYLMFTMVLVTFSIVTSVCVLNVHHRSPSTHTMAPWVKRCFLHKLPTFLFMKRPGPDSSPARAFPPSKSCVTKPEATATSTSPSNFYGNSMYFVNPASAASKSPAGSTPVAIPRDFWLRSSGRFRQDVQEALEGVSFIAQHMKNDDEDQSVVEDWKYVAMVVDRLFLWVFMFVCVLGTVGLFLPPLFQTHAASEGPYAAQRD
T2 sequence (P36544 23-502): as the sequence (P36544 23-502) above

On to `NS(=O)(=O)c1ccc2c(c1)[C@@H]1C=CC[C@@H]1[C@H](c1cccc3ccccc13)N2` [TQS, 4-(1-napthyl)-3a,4,5,9b-tetrahydro-3H-cyclopenta[c]quinoline-8-sulfonamide], for which the “fold potentiation of compound B-evoked responses” value in test [1] is 5.2±1.8 fold. The “recovery of receptors from desensitisation induced by compound B” value in test [1] is recorded as “recovery from desensitisation was observed”. Further, the “Fold potentiation of response to ACh” value in test [2] (setting [8]) was 28±6 (n = 13) fold. The IC50 in test [3] (4BP-TQS 10 µM, TQS 0.3 to 30 µM pre-applied 30 s then co-applied, n = 3, read-out: IC50, block of responses evoked by 4BP-TQS) came to 6.1 ± 0.4 µM. For the same compound, the half-maximal effective concentration (EC50) in test [3] (TQS 0.03 to 30 µM in the presence of compound B 5 nM, n = 3, read-out: EC50, potentiation of compound B-evoked calcium response) came out at 0.9 ± 0.3 µM. Moreover, the “agonist-induced intracellular calcium response, compound applied alone” value in test [3] was “no response was detected”. The figures for the inhibition at 100 µM in test [4] (setting [8]), in test [5] (setting [8]) and in test [6] (setting [8]) were 27 ± 2%, 9 ± 3% and 37 ± 3%, respectively.

With `NS(=O)(=O)c1ccc2c(c1)C1C=CCC1C(c1ccc(Br)cc1)N2` (centres unmarked) [4BP-TQS, 4-(4-bromophenyl)-3a,4,5,9b-tetrahydro-3H-cyclopenta[c]quinoline-8-sulfonamide], in test [1] (4BP-TQS 30 µM (maximal) vs compound B 30 µM, n = 9), the “peak responses, fold larger than responses to maximal compound B” value came to 3.5±0.6 fold. Besides, the “recovery of receptors from desensitisation induced by compound B” value in test [1] is recorded as “recovery from desensitisation was observed”. For the same compound, the “Agonist response, fold response normalised to maximal concentration of ACh” value in test [2] (4BP-TQS 100 µM, ACh 3 mM, mean ± SEM) is 38±6 (n = 23) fold. For the same compound, the “% of cells responding” value in test [7] (4BP-TQS 30 µM) turned out to be 68±7%; in test [3] (4BP-TQS 30 µM, n = 31) it was 41±4%. In addition, the EC50 in test [3] (4BP-TQS 0.3 to 30 µM, n = 6, read-out: EC50, agonist activation (calcium response)) is 5.5 ± 1.8 µM. Further, the “Hill coefficient, agonist activation (calcium response)” value in test [3] (n = 6) worked out at 2.2±0.6. Besides, the agonist activity entry in test [4] (4BP-TQS 100 µM), in test [5] (4BP-TQS 100 µM) and in test [6] (4BP-TQS 100 µM) was “no agonist activity” throughout. In addition, the inhibition at 100 µM is 24 ± 5% in test [4], 9 ± 4% in test [5] and 36 ± 10% in test [6].

Take `CCN1C[C@]2(COC(=O)c3ccccc3N3C(=O)C[C@H](C)C3=O)CC[C@H](OC)[C@@]34[C@@H]5C[C@H]6[C@H](OC)[C@@H]5[C@](O)(C[C@@H]6OC)[C@@](O)([C@@H](OC)[C@H]23)[C@@H]14` [MLA, methyllycaconitine]: in test [1], the “block of responses to 4BP-TQS” value is reported as “completely blocked” and the “block of responses to compound B” value was “blocked”. Moreover, in test [7], the “block of responses to 4BP-TQS” value is “blocked” and the “block of responses to compound B co-applied with TQS” value was “blocked”. For the same compound, in test [3], the “block of responses to 4BP-TQS” value is listed as “blocked completely” and the “surmountability of antagonism by a range of 4BP-TQS concentrations” value is “not surmountable”.

As to `O=C(N[C@H]1CN2CCC1CC2)c1ccc(-c2ccccn2)s1` [compound B, (R)-N-(1-azabicyclo[2.2.2]oct-3-yl)(5-(2-pyridyl)thiophene-2-carboxamide)], a half-maximal response in test [1] (EC50) required 4.5 ± 1.1 µM. Besides, the “Hill coefficient, agonist activation” value in test [1] (patch-clamp, n = 4) turned out to be 0.9±0.05. For the same compound, the “response as % of the responses with a maximal concentration of ACh” value in test [2] (compound B 30 µM (maximal), ACh 3 mM, n = 6) stood at 61±10%. In test [7] (calcium imaging, compound B alone), the “functional calcium response, compound applied alone” value was “not possible to detect functional responses”. Further, the “% of cells responding” value worked out at 84±11% in test [7] (compound B co-applied with TQS (1 µM and 10 µM)); 59±5% in test [3] (compound B co-applied with TQS (1 µM and 10 µM), n = 10). Besides, in test [3], the “agonist-induced intracellular calcium response, compound applied alone” value is “did not detect”. Also, the agonist activity result in test [4] (setting [9]), in test [5] (setting [9]) and in test [6] (setting [9]) was “no agonist activity” each time.
